In series [1] the target is T1, recombinant human ACC1 (rhACC1) (Homo sapiens, UniProt Q13085, DEL44-44).
T1 construct: His6 (N); made in house; host or cells: SF9 insect cells (baculovirus)
Put plainly: Transcreener ADP detection FP assay, recombinant human ACC1 inhibition. The note with it: recombinant human ACC1, 50 μM ATP; read-out: Transcreener Assay hACC1 IC50. It is filed as biochemical.

The target of series [2] is T2, recombinant human ACC2 (rhACC2) (Homo sapiens, UniProt O00763, V2141I).
T2 construct: made in house; host or cells: CHO cells, tetracycline-induced (pcDNA5 FRT TO-TOPO)
Put plainly: Transcreener ADP detection FP assay, recombinant human ACC2 inhibition. In kind it is biochemical. The settings on record: recombinant human ACC2, 50 μM ATP; read-out: Transcreener Assay hACC2 IC50.

In series [3] the test system is SZ95 human sebocyte cells. Put plainly: Inhibition of de novo lipogenesis (14C-acetate incorporation) in cultured human sebocytes. The note with it: for IC50: Homo sapiens, SZ95 sebocytes, 14C-acetate incorporation into lipids relative to vehicle, read-out: C9302E Sebocyte IC50. In kind it is cell-based. How it is done: SZ95 sebocytes were grown in Human Sebocyte Growth Medium (HSGM) (Sebomed® medium (Biochrom: F8205) supplemented with 10% heat-inactivated fetal bovine serum, 1% penicillin/streptomycin, 1 mM calcium chloride and 5 ng/mL recombinant human epidermal growth factor (Life Tech: PHG0311)). At 90% confluence, cells were washed three times with PBS and then detached with 0.05% Trypsin-EDTA. Cells were centrifuged and resuspended in HSGM containing 10% charcoal-stripped serum (Life Tech: 12676-029). Cells were then plated in 24-well plates at a density of 0.25×10^6 cells/well and were incubated overnight to enable cell adherence to the culture plate.
Cells were treated with a dose response of compound, and each dose was assayed in triplicate. Briefly, compounds were dissolved in DMSO stocks and diluted 1:1000 into charcoal-stripped media. 0.1% DMSO without compound was used as the vehicle control. After a 1 hour preincubation with compound or vehicle, 0.25 μCi ^14C-acetic acid (American Radiolabeled Chemicals: ARC0158B) was added to each well. Plates were then incubated for an additional two hours. At the end of the incubation period, cells were removed from incubator, placed on ice, and then washed twice with ice-cold PBS to remove free ^14C-acetic acid. Plates were sealed and stored at −20° C. until analysis.
Plates were shaken for 1 hour at room temperature to induce lysis. Lysates were transferred to individual 1.5 mL polypropylene tubes, and wells were washed with 175 μl of PBS, which was added to lysates. 450 μl of a 1:1 (v/v) chloroform:methanol solution was then added to each tube, and then all tubes were vortexed for 10 seconds and centrifuged at 20,000×g for 5 minutes at room temperature to separate aqueous from organic phase. A 25 μl aliquot was removed from the bottom organic layer of each sample and added to 6 mL OptiPhase supermix (PerkinElmer: 1200-439) scintillation fluid. Counts of ^14C incorporated into lipids were assessed by scintillation counting. DNL (counts of ^14C incorporated into lipids) was expressed for compound treated cells relative to DNL in the vehicle control treated cells for determination of EC50 values. For a subset of the compounds tested, a second aliquot (3×35 μl) of the organic layer of each sample was removed and applied to a TLC lane (Analtech Silica Gel G Plates). Radiolabeled lipids were resolved using a 2-solvent system. Solvent 1 contained a 100:100:100:40:36 mixture of ethyl acetate:isopropyl alcohol:CHCl3:MeOH:0.25% KCl and solvent 2 a 70:27:3 hexane:diethyl ether:acetic acid mix. The TLC plate was dried under nitrogen for 30 minutes and [^14C]-calibrators added to a vacant lane. Bands were visualized and quantitated using a Molecular Dynamics' Storm 860 Phosphorimager system following 18-36 hours exposure to a Phosphorimager screen.

A further series deals with hACC1 (Homo sapiens, UniProt Q13085). Description: Radiometric ACC1 inhibition assay. It is filed as biochemical.
For another series, the target named is hACC2 (Homo sapiens, UniProt O00763). Description: Radiometric ACC2 inhibition assay. It is filed as biochemical.
In the next series the target is T3, CYP2C8 (Homo sapiens, UniProt P10632).
T3 construct: from tissue; host or cells: liver microsomes
T3 sequence (P10632 1-490): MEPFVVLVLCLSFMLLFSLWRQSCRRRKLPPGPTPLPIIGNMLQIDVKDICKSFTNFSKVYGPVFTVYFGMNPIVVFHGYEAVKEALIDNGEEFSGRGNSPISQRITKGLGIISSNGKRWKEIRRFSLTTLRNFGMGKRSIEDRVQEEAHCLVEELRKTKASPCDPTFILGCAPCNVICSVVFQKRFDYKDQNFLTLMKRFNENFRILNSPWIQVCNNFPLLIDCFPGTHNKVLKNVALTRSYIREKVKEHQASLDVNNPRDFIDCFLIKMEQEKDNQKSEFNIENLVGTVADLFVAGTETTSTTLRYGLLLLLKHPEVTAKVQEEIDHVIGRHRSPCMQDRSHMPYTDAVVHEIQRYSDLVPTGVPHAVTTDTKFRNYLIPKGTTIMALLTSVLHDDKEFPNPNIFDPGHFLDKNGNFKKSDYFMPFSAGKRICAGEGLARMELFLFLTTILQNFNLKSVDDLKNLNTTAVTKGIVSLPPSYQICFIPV
Put plainly: P450 inhibition in liver microsomes with probe substrates. It is filed as in vitro ADME.

In series [4] the test system is de novo lipogenesis (DNL). Description: Suppression of DNL in healthy human volunteers. In kind it is in vivo. The note with it: dose-dependent.
The next series concerns the target CYP3A (Homo sapiens, UniProt P08684). Put plainly: in vitro. The note with it: microsomes.
Another series deals with T4, CYP1A2 (Homo sapiens, UniProt P05177).
T4 sequence (P05177 1-516): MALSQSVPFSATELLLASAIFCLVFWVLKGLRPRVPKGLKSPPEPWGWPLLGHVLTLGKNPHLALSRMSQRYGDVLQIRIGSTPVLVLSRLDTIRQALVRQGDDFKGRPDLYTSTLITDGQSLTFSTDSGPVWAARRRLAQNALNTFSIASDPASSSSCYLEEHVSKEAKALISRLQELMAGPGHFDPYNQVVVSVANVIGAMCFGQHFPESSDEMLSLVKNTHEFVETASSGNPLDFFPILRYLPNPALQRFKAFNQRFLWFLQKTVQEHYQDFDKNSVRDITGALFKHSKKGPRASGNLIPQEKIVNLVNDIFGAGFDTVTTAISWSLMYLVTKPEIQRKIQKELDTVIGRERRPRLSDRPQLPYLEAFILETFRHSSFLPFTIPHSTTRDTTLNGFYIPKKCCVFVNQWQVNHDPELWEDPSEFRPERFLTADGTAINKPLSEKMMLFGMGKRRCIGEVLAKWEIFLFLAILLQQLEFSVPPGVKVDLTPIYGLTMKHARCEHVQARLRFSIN
Description: biochemical.

Sequence of hACC2 (O00763 whole entry): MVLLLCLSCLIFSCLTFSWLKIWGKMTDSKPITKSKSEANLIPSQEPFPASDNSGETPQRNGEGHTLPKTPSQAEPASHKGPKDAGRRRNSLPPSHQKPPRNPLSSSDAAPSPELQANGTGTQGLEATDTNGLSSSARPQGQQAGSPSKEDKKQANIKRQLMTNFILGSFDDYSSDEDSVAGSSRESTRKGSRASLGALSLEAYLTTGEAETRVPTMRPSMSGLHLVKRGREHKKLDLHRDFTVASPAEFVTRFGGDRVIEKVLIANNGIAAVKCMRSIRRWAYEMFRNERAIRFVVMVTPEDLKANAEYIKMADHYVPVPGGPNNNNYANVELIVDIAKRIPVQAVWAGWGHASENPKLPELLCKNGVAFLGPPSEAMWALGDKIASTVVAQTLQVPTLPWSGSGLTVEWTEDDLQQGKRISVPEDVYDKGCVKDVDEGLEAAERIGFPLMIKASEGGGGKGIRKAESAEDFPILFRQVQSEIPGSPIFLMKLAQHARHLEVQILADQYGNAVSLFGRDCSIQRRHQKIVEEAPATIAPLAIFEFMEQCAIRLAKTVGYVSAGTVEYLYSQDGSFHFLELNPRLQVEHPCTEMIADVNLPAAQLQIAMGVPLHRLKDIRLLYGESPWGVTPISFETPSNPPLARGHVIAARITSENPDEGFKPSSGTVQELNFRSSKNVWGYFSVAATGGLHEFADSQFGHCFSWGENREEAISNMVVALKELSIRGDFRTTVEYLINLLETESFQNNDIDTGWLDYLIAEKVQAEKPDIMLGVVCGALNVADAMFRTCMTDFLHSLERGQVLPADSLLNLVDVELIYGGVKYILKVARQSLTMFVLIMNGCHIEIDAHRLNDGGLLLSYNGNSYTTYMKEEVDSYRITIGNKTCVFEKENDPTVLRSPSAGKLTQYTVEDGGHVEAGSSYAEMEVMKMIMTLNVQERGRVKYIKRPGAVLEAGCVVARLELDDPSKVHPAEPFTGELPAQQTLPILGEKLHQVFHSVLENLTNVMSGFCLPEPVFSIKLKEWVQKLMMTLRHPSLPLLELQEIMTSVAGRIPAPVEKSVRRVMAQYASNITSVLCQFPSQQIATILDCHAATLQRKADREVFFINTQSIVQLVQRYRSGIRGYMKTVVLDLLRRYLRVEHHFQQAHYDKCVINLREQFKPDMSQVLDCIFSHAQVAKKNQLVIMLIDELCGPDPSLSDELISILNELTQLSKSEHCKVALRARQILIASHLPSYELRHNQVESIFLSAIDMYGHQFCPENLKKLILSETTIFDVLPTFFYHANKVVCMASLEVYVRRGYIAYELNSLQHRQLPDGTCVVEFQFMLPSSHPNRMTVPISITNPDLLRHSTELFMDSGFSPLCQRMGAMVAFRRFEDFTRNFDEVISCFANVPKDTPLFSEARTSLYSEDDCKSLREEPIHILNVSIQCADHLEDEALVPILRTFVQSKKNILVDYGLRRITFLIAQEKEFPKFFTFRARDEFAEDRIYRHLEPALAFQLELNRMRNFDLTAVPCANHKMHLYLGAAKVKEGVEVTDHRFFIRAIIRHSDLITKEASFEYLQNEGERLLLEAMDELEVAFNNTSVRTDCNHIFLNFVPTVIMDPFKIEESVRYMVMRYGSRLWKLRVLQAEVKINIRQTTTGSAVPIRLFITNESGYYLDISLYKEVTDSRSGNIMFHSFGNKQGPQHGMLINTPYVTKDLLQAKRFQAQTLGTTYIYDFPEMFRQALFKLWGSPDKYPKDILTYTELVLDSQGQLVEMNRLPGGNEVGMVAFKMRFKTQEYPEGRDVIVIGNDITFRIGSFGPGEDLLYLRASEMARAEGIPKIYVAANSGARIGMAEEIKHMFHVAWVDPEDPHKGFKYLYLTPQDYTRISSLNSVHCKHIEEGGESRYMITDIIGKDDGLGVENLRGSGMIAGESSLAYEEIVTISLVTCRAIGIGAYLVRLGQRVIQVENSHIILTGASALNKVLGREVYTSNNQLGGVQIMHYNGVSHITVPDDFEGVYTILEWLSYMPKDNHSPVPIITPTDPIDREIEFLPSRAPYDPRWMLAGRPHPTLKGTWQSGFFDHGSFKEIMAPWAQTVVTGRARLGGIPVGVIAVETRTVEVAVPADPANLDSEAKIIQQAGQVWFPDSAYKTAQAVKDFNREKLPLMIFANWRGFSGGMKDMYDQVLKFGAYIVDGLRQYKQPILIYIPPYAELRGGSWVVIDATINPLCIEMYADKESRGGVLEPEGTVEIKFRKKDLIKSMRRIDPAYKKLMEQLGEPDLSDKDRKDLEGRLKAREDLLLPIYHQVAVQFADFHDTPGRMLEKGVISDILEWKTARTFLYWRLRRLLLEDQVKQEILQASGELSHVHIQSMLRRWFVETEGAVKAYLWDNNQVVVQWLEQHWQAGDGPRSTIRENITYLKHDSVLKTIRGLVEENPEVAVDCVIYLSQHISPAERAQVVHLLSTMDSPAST
Sequence of CYP3A (P08684 2-503): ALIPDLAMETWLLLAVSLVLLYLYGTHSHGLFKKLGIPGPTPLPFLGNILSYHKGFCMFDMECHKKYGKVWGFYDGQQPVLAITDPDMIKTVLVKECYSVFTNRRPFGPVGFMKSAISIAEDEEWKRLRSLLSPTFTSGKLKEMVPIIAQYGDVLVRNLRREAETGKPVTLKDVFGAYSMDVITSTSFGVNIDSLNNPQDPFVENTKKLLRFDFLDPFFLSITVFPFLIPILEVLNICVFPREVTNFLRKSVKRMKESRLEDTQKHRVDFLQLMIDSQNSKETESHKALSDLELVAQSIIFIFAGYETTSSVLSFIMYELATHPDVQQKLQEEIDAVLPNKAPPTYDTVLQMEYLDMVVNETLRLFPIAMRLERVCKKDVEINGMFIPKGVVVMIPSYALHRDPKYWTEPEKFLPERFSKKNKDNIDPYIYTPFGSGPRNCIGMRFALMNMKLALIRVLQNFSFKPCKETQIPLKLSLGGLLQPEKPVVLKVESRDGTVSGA

As usually defined, the IC50 is the concentration that inhibits the measured activity by half. For `Cc1nc2ccc(C(=O)N3CCC4(CC3)CC(=O)c3c(cnn3C(C)C)C4)cc2[nH]1` [Example 1, 1-isopropyl-1′-(2-methyl-1H-benzo[d]imidazole-5-carbonyl)-4,6-dihydrospiro[indazole-5,4′-piperidin]-7(1H)-one], the IC50 in series [1] is 98 nM; in series [2], 45 nM; in [3], 679 nM; against hACC1, 11 nM; against hACC2 it was 27 nM; against CYP2C8 it was > 30000 nM. In addition, the half-inhibitory concentration (IC50) against CYP3A and at CYP1A2 was > 30000 nM each time. The “suppression of DNL in healthy human volunteers” value in series [4] is listed as “up to 80%”.
For `CC(C)n1ncc2c1C(=O)CC1(CCN(C(=O)c3ccc4ccc(N)nc4c3)CC1)C2` [Example 3, 1′-(2-aminoquinoline-7-carbonyl)-1-isopropyl-4,6-dihydrospiro[indazole-5,4′-piperidin]-7(1H)-one], the IC50 in [3] was found to be 90 nM; at hACC1, 5 nM; on hACC2, 5 nM. In series [3] (SZ95 cells, TLC, vs. vehicle), the “incorporation of 14C-acetate into free cholesterol” value is “did not alter”. Moreover, the “incorporation of 14C-acetate into SZ95 cell lipid species containing or comprised of fatty acids” value in series [3] (TLC, cholesterol esters, triglycerides, free fatty acids, diglycerides, monoglyceride, phospholipid, vs. vehicle) is given as “clear inhibition”.

The values above are taken from patent publication US20160220557A1, “USE OF ACETYL-COA CARBOXYLASE INHIBITORS FOR TREATING ACNE VULGARIS” (PFIZER INC., priority 2013, published 2016).
